Test results reported in patent US6355647B1, “3-substituted 3,4,5,7-tetrahedropyrrolo[3′,4′:4,5]thieno-[2,3-d]pyrimidine derivatives, their preparation and use” (Abbott Laboratories, priority 1997, dated 2002).

How the values were obtained:
[1] = system: serotonin release in the cortex; settings: after systemic administration; cited from earlier work
[2] = system: serotonin release in the dorsal raphe nucleus; settings: rat; combined with paroxetine; cited from earlier work

melting point [°C]	Compound	serotonin release in the cortex [1]	effect of paroxetine on serotonin release in the dorsal raphe nucleus [2]
152	CCOC(=O)N1Cc2sc3ncn(CCN4CCN(c5ccccc5C)CC4)c(=O)c3c2C1	–	–
149	CCOC(=O)N1Cc2sc3ncn(CCN4CCN(c5cccc6c5CCC6)CC4)c(=O)c3c2C1	–	–
190 to 192	CCOC(=O)N1Cc2sc3ncn(CCN4CCN(c5cccc6ccccc56)CC4)c(=O)c3c2C1	–	–

More lines, now with the values behind:

Compound	melting point [°C]	serotonin release in the cortex [1]	effect of paroxetine on serotonin release in the dorsal raphe nucleus [2]
CCOC(=O)N1Cc2sc3ncn(CCN4CCN(c5ncccn5)CC4)c(=O)c3c2C1	166	–	–
CCOC(=O)N1Cc2sc3ncn(CCN4CCN(c5ccccc5Cl)CC4)c(=O)c3c2C1	172	–	–
CCOC(=O)N1Cc2sc3ncn(CCCN4CCN(c5ccccc5C#N)CC4)c(=O)c3c2C1	190	–	–
COc1ccc(NC(=O)c2ccc(-c3ccc(-c4noc(C)n4)cc3C)cc2)cc1N1CCN(C)CC1 [GR 127 935]	–	reduces serotonin release	potentiated
